Test results reported in ChEMBL document CHEMBL4507274 (2021).

How the values were obtained:
[1] = test system: Phosphatidylinositol 4,5-bisphosphate 3-kinase catalytic subunit alpha isoform (Homo sapiens), P42336 [E545A]; conditions: Compound concentration 100.0 nM
[2] = molecular target: Muscarinic acetylcholine receptor M2 (Homo sapiens) (UniProt P08172); conditions: Compound concentration 10.0 uM
[3] = test system: Receptor-type tyrosine-protein kinase FLT3 (Homo sapiens), P36888 [K663Q]; conditions: Compound concentration 100.0 nM
[4] = molecular target: Mitogen-activated protein kinase 7 (Homo sapiens) (UniProt Q13164); conditions: Compound concentration 100.0 nM
[5] = molecular target: Kappa-type opioid receptor (Homo sapiens, UniProt P41145); test: GPCRScan assay: inhibition of KOR; set-up: radioligand conc. used [nm] 0.6 – 1.2, parental cells stable HEK
[6] = molecular target: Serine/threonine-protein kinase Nek7 (Homo sapiens) (UniProt Q8TDX7); conditions: Compound concentration 100.0 nM
[7] = molecular target: Serine/threonine-protein kinase 10 (Homo sapiens) (UniProt O94804); conditions: Compound concentration 100.0 nM
[8] = molecular target: Ribosomal protein S6 kinase beta-1 (Homo sapiens) (UniProt P23443); conditions: Compound concentration 100.0 nM
[9] = molecular target: Mitogen-activated protein kinase 9 (Homo sapiens) (UniProt P45984); conditions: Compound concentration 100.0 nM
[10] = molecular target: D(4) dopamine receptor (Homo sapiens) (UniProt P21917); conditions: Compound concentration 10.0 uM
[11] = molecular target: Homeodomain-interacting protein kinase 2 (Homo sapiens) (UniProt Q9H2X6); conditions: Compound concentration 100.0 nM
[12] = molecular target: Muscarinic acetylcholine receptor M3 (Homo sapiens) (UniProt P20309); conditions: Compound concentration 10.0 uM
[13] = molecular target: Serine/threonine-protein kinase RIO2 (Homo sapiens) (UniProt Q9BVS4); conditions: Compound concentration 100.0 nM
[14] = molecular target: Serine/threonine-protein kinase MARK2 (Homo sapiens) (UniProt Q7KZI7); conditions: Compound concentration 100.0 nM
[15] = test system: Phosphatidylinositol 4,5-bisphosphate 3-kinase catalytic subunit alpha isoform (Homo sapiens), P42336 [E542K]; conditions: Compound concentration 100.0 nM
[16] = molecular target: Interleukin-1 receptor-associated kinase 4 (Homo sapiens) (UniProt Q9NWZ3); conditions: Compound concentration 100.0 nM
[17] = molecular target: Calcium/calmodulin-dependent protein kinase type 1G (Homo sapiens) (UniProt Q96NX5); conditions: Compound concentration 100.0 nM
[18] = molecular target: Activin receptor type-1 (Homo sapiens) (UniProt Q04771); conditions: Compound concentration 100.0 nM
[19] = test system: Tyrosine-protein kinase ABL1 (Homo sapiens), P00519 [T315I]; conditions: Compound concentration 100.0 nM
[20] = molecular target: Dual specificity mitogen-activated protein kinase kinase 1 (Homo sapiens) (UniProt Q02750); conditions: Compound concentration 100.0 nM
[21] = test system: Phosphatidylinositol 4,5-bisphosphate 3-kinase catalytic subunit alpha isoform (Homo sapiens), P42336 [E545K]; conditions: Compound concentration 100.0 nM
[22] = molecular target: Phosphorylase b kinase gamma catalytic chain, skeletal muscle/heart isoform (Homo sapiens) (UniProt Q16816); conditions: Compound concentration 100.0 nM
[23] = molecular target: Misshapen-like kinase 1 (Homo sapiens) (UniProt Q8N4C8); conditions: Compound concentration 100.0 nM
[24] = molecular target: Insulin-like growth factor 1 receptor (Homo sapiens) (UniProt P08069); conditions: Compound concentration 100.0 nM
[25] = molecular target: Inhibitor of nuclear factor kappa-B kinase subunit epsilon (Homo sapiens) (UniProt Q14164); conditions: Compound concentration 100.0 nM
[26] = molecular target: Ribosomal protein S6 kinase alpha-5 (Homo sapiens) (UniProt O75582); conditions: Compound concentration 100.0 nM
[27] = test system: Mast/stem cell growth factor receptor Kit (Homo sapiens), P10721 [V559D,V654A]; conditions: Compound concentration 100.0 nM
[28] = molecular target: Tyrosine-protein kinase Yes (Homo sapiens) (UniProt P07947); conditions: Compound concentration 100.0 nM
[29] = molecular target: Membrane-associated tyrosine- and threonine-specific cdc2-inhibitory kinase (Homo sapiens) (UniProt Q99640); conditions: Compound concentration 100.0 nM
[30] = molecular target: Serine/threonine-protein kinase WNK4 (Homo sapiens) (UniProt Q96J92); conditions: Compound concentration 100.0 nM
[31] = molecular target: Calcium/calmodulin-dependent protein kinase type II subunit gamma (Homo sapiens) (UniProt Q13555); conditions: Compound concentration 100.0 nM
[32] = molecular target: Serine/threonine-protein kinase tousled-like 2 (Homo sapiens) (UniProt Q86UE8); conditions: Compound concentration 100.0 nM
[33] = molecular target: T1, Calcium/calmodulin-dependent protein kinase type IV (Homo sapiens) (UniProt Q16566); conditions: Compound concentration 100.0 nM
T1 sequence (whole entry): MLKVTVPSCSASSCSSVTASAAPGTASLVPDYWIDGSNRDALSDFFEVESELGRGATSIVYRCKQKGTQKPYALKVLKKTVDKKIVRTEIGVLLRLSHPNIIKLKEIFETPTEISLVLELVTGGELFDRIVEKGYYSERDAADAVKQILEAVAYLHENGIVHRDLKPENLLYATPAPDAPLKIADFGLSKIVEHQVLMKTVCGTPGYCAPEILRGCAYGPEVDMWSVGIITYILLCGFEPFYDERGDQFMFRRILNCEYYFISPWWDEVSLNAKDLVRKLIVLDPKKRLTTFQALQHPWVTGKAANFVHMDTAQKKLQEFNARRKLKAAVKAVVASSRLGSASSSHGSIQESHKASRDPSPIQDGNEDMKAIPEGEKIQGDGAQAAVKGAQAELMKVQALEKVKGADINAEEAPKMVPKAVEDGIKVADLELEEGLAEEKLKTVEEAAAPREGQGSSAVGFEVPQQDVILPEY

[34] = molecular target: Glycogen synthase kinase-3 alpha (Homo sapiens) (UniProt P49840); conditions: Compound concentration 100.0 nM
[35] = molecular target: Mitogen-activated protein kinase kinase kinase kinase 4 (Homo sapiens) (UniProt O95819); conditions: Compound concentration 100.0 nM
[36] = molecular target: Phosphatidylinositol 4-phosphate 3-kinase C2 domain-containing subunit beta (Homo sapiens) (UniProt O00750); conditions: Compound concentration 100.0 nM
[37] = molecular target: Mitogen-activated protein kinase kinase kinase 13 (Homo sapiens) (UniProt O43283); conditions: Compound concentration 100.0 nM
[38] = test system: Serine/threonine-protein kinase B-raf (Homo sapiens), P15056 [V600E]; conditions: Compound concentration 100.0 nM

Chain of Phosphorylase b kinase gamma catalytic chain, skeletal muscle/heart isoform (Homo sapiens) (Q16816 whole entry, looked up, canonical isoform): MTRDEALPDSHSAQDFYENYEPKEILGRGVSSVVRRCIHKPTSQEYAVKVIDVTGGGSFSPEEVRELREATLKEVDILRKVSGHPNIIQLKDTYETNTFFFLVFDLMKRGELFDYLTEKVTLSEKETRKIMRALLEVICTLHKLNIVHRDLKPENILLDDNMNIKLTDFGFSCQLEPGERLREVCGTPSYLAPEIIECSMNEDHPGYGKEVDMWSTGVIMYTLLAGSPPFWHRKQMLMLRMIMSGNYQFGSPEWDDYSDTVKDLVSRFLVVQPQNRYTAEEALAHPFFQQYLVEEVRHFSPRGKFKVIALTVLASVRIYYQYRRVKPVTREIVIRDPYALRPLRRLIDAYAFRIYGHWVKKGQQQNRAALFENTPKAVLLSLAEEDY
Chain of Homeodomain-interacting protein kinase 2 (Homo sapiens) (Q9H2X6 whole entry, looked up): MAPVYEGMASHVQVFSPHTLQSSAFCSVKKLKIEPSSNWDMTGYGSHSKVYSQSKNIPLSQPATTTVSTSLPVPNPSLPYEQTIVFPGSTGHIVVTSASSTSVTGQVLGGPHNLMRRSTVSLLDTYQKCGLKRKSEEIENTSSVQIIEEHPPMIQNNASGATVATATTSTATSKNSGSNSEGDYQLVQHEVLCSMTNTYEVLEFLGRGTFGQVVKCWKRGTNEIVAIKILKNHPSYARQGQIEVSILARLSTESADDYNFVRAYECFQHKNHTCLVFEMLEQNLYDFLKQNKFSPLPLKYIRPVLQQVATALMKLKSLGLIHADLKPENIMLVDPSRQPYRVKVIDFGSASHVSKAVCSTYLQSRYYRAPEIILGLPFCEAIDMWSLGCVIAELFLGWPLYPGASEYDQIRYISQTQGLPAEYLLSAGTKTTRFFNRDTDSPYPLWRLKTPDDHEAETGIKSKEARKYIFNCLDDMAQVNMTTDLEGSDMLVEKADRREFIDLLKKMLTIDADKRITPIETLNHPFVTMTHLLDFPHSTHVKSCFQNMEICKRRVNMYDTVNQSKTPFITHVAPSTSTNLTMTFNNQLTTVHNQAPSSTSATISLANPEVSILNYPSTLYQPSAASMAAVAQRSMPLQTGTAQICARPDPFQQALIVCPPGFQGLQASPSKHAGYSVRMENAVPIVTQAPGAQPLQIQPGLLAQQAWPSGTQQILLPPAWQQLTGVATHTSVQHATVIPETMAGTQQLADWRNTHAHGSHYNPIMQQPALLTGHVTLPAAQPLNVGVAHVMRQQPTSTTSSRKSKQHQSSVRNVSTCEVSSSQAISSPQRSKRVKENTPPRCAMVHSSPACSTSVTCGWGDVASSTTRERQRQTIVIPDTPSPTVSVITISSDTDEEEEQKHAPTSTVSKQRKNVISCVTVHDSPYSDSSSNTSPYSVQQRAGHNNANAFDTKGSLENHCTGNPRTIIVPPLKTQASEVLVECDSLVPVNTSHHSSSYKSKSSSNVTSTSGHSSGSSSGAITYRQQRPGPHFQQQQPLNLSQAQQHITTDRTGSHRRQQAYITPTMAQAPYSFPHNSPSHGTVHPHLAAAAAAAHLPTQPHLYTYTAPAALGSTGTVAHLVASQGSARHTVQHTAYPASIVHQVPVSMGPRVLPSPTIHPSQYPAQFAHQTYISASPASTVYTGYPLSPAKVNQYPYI
Chain of Ribosomal protein S6 kinase beta-1 (Homo sapiens) (P23443 whole entry, looked up): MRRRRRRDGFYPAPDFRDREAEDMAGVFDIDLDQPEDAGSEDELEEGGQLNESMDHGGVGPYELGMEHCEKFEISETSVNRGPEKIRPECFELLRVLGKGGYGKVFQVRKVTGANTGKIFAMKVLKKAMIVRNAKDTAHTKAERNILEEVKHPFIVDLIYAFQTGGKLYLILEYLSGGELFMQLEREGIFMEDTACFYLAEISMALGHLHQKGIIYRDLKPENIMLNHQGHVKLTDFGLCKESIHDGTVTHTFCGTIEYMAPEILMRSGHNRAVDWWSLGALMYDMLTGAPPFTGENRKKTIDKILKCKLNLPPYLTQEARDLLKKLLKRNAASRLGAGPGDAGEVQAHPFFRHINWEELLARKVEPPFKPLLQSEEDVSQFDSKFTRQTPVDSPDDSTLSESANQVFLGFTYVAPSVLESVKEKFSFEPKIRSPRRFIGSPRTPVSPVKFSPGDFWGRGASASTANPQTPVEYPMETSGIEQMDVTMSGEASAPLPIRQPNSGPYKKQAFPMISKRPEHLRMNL
Chain of Mitogen-activated protein kinase kinase kinase kinase 4 (Homo sapiens) (O95819 2-1239 limits assumed): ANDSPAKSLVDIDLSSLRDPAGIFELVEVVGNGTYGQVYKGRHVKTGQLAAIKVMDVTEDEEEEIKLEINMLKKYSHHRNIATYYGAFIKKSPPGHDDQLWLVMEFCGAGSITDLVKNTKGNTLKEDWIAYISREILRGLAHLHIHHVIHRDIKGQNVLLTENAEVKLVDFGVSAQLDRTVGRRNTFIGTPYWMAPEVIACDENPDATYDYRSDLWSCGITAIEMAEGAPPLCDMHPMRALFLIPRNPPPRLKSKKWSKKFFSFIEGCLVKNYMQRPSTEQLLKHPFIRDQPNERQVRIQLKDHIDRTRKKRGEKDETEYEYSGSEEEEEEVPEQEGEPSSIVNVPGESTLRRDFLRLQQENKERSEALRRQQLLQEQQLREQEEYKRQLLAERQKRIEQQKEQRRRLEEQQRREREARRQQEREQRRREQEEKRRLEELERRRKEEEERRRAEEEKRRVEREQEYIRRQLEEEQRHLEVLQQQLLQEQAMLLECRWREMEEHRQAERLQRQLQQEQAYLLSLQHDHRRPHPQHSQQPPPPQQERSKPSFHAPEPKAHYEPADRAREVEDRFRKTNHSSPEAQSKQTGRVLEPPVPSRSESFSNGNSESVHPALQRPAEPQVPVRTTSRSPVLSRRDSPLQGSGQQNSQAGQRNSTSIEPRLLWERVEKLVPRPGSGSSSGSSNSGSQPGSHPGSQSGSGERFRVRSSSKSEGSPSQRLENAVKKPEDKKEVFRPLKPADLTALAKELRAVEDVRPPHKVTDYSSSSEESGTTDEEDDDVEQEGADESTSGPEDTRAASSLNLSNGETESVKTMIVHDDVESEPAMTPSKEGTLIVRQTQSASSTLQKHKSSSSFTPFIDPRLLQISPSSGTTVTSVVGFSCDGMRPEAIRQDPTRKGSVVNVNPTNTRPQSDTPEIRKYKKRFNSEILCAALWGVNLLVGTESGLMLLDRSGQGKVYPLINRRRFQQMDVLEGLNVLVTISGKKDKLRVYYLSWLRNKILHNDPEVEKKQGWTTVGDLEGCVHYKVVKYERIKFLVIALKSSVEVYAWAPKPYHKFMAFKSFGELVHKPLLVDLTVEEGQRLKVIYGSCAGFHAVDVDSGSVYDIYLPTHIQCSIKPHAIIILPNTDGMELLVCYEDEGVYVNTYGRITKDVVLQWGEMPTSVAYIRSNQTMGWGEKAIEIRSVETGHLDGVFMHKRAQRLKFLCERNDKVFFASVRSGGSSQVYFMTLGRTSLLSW
Chain of Calcium/calmodulin-dependent protein kinase type II subunit gamma (Homo sapiens) (Q13555 whole entry): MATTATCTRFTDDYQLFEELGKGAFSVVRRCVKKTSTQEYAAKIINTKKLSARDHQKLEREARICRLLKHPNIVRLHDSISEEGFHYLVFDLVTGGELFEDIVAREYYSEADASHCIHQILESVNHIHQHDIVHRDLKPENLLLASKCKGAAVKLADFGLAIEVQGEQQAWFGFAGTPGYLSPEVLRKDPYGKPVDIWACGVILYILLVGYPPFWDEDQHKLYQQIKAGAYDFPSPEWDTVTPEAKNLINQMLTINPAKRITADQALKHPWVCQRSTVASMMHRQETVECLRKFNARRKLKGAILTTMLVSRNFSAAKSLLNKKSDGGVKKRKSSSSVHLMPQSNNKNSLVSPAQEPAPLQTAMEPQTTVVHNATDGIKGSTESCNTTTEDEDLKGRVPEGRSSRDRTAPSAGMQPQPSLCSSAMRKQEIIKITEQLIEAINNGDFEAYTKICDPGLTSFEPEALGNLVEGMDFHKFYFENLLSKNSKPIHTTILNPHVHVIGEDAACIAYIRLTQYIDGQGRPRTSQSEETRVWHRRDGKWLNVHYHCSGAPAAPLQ
Chain of Glycogen synthase kinase-3 alpha (Homo sapiens) (P49840 2-483 limits assumed): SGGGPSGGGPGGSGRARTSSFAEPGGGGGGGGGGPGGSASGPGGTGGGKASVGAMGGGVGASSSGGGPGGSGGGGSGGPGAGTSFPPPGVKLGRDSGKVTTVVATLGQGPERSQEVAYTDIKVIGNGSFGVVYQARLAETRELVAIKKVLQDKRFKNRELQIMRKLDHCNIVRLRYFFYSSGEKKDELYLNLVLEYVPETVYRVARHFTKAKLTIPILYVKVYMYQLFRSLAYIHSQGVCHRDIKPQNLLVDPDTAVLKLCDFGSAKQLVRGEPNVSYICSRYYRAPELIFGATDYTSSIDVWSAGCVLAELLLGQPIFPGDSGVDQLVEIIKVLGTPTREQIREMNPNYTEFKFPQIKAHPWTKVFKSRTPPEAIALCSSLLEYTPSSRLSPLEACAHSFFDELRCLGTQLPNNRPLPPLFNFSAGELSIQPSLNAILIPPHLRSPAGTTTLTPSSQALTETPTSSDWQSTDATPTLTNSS
Chain of D(4) dopamine receptor (Homo sapiens) (P21917 whole entry): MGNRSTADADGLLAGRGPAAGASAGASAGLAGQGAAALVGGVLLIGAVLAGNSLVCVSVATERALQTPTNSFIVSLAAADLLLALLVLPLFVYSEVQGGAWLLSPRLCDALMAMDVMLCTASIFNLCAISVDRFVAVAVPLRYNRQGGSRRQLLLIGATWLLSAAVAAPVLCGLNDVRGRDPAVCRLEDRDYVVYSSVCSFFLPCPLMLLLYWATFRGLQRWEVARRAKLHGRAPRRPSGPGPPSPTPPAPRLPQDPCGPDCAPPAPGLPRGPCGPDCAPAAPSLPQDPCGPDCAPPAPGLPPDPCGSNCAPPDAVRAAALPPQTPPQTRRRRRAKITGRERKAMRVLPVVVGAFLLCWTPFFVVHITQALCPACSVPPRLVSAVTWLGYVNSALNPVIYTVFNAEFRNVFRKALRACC

Structure (SMILES): Cc1c[nH]c2nccc(Oc3c(F)cc(Nc4cc(Cl)nc(N)n4)cc3F)c12 [BAY-549]
- residual activity [1]: 88%
- inhibition [2]: 7.41%
- residual activity [3]: 87%
- residual activity [4]: 82%
- Ki [5]: 187 nM
- residual activity [6]: 100%
- residual activity [7]: 100%
- residual activity [8]: 85%
- residual activity [9]: 93%
- inhibition [10]: 11.4%
- residual activity [11]: 90%
- inhibition [12]: -0.34%
- residual activity [13]: 85%
- residual activity [14]: 100%
- residual activity [15]: 85%
- residual activity [16]: 85%
- residual activity [17]: 97%
- residual activity [18]: 94%
- residual activity [19]: 84%
- residual activity [20]: 81%
- residual activity [21]: 82%
- residual activity [22]: 100%
- residual activity [23]: 100%
- residual activity [24]: 86%
- residual activity [25]: 93%
- residual activity [26]: 93%
- residual activity [27]: 94%
- residual activity [28]: 96%
- residual activity [29]: 98%
- residual activity [30]: 100%
- residual activity [31]: 96%
- residual activity [32]: 95%
- residual activity [33]: 100%
- residual activity [34]: 95%
- residual activity [35]: 94%
- residual activity [36]: 88%
- residual activity [37]: 81%
- residual activity [38]: 98%

Structure (SMILES): Cn1cc(Cl)c2c(Oc3c(F)cc(Nc4cc(Cl)nc(N)n4)cc3F)ccnc21 [BAY-4900]
- residual activity [1]: 88%
- inhibition [2]: 0.85%
- residual activity [3]: 100%
- residual activity [4]: 100%
- Ki [5]: 391 nM
- residual activity [6]: 100%
- residual activity [7]: 100%
- residual activity [8]: 84%
- residual activity [9]: 86%
- inhibition [10]: 11.3%
- residual activity [11]: 100%
- inhibition [12]: -4.88%
- residual activity [13]: 100%
- residual activity [14]: 100%
- residual activity [15]: 89%
- residual activity [16]: 90%
- residual activity [17]: 100%
- residual activity [18]: 85%
- residual activity [19]: 86%
- residual activity [20]: 90%
- residual activity [21]: 78%
- residual activity [22]: 100%
- residual activity [23]: 93%
- residual activity [24]: 97%
- residual activity [25]: 100%
- residual activity [26]: 100%
- residual activity [27]: 90%
- residual activity [28]: 93%
- residual activity [29]: 100%
- residual activity [30]: 100%
- residual activity [31]: 100%
- residual activity [32]: 100%
- residual activity [33]: 96%
- residual activity [34]: 99%
- residual activity [35]: 86%
- residual activity [36]: 83%
- residual activity [37]: 99%
- residual activity [38]: 100%
